Results: patent US20050025805A1, “Osmium compounds for reduction of adverse inflammation” (priority 2003, published 2005)
Read-outs that look alike come from different tables or passages of the source.

Tests used:
[1] = system: Phorbol Myristate Stimulated Murine Peritoneal Macrophages; settings: cited from earlier work
[2] = Neta et al. J. Phys. Chem. 1980; cited from earlier work
[3] = Pulse radiolysis: decay of carbonate radical CO3.-, absorbance at 600 nm; assay type: biochemical; settings: 0.6 M carbonate
Procedure: Methods. Pulse radiolysis experiments were carried out using a 5-MeV Varian 7715 linear accelerator (0.05-1.5 μs electron pulses, 200 mA current). All measurements were performed at room temperature in a 2-cm spectrosil cell, with three light passes (optical path length 6.1 cm). The formation and decay kinetics of the CO3− radical were tracked by measuring its absorption at 600 nm using ε600=1860 M^−1cm^−1.
Carbonate radical was generated by irradiating N2O-saturated (˜25 mM) aqueous solutions containing 0.1-0.6 M sodium carbonate (pKa(HCO3^−)=10, I=0.5 M) at pH 10.0 by reaction sequence 18-20 (the species radiation yields are in parentheses): […]

[4] = Pulse radiolysis: catalysis of the decay (dismutation) of O2.-, absorbance at 260 nm; assay type: biochemical; settings: for kcat (in words): oxygenated solution; for kobs at the plateau: 10 μM O2.-, pH 7.25; for kcat at the plateau after repetitive pulsing: 20 mM formate, 2.4 mM phosphate pH 7.25
Procedure: Pulse radiolysis experiments were carried out with a Varian (Palo Alto, Calif.) 7715 linear accelerator with 5 MeV electron pulses of 1.5 μs duration. The light source of the analyzing beam was a 200 W xenon lamp. The absorption spectra were measured were at room temperature in a 2 cm Spectrosil® cell, the beam passing the cell three times, for an optical path length of 6.1 cm. The dose was 6-19.4 Gy per pulse, as determined from the absorption of the superoxide ion, using G(O2.^−)=6.1 and ε260=1940 M^−1cm^−1, in pH 7.4 O2 saturated 2.4 mM phosphate buffer, containing 20 mM formate.
OsO4 (or its product) catalyzes the decay of the superoxide ion radical. The superoxide ion radical (pKa=4.8) was formed by pulse-irradiation of oxygenated pH 7.2-7.4 buffer solutions. The solutions contained either 0.02 M formate and 2.4 mM phosphate, or 0.2 M 2-PrOH and 12 mM phosphate. In some experiment 5-10 μM diethylenetriaminepentaacetic acid (DTPA) or catalase (75 u/ml) were added. In the presence of either formate or 2-PrOH. All of the primary radicals formed by the radiation (Equation 3) are converted into O2.^− via Reactions 4-7 when formate is added, and by Reactions 4, 8-10, when 2-PrOH is added. In Equation 3 the values in parentheses are the radiation-chemical yields of the species, defined as the number of species produced per 100 eV of absorbed energy γ.

## CC(=O)OC[C@H]1O[C@@H]([S-])[C@H](OC(C)=O)[C@@H](OC(C)=O)[C@@H]1OC(C)=O.CCP(CC)CC.[Au+] [2,3,4,6-tetra-O-acetyl-1-thio-β-D-glucopyranosato-S (triethylphosphine)]
[1]; 10 μM concentration
  inhibition of the release of O2.- (in words): completely inhibited

## Cc1cccc[n+]1[O-] [2-picoline N-oxide]
[2]
  k, reaction with .OH radicals: 3e+09 M⁻¹ s⁻¹

## Cc1ccc[n+]([O-])c1 [3-picoline N-oxide]
[2]
  k, reaction with .OH radicals: 3e+09 M⁻¹ s⁻¹

## Cc1cc[n+]([O-])cc1 [4-picoline N-oxide]
[3]; 2 mM, 3 μM CO3.-
  shortening of the half-life of CO3.-: about 50%
[3]; pH 10.0
  rate constant of the reaction with CO3.-: about 3×10^4 M^−1s^−1
[2]
  k, reaction with .OH radicals: 3e+09 M⁻¹ s⁻¹

## CN(C)CCCN1CCC2(C[CH2][Ge]([CH3])([CH3])[CH2]C2)C1 [(N,N-dimethylaminopropyl)-2-aza-8,8-dimethyl-8-germanospiro-(4,5)-decane]
[1]; 10 μM concentration
  inhibition of the release of O2.- (in words): completely inhibited

## [Os+2].c1ccc(-c2ccccn2)nc1.c1ccc(-c2ccccn2)nc1.c1ccc(-c2ccccn2)nc1 [Os(bpy)3^2+]
[4]
  kcat (in words): too low to be measured

## Cc1ccnc(-c2cc(C)ccn2)c1.Cc1ccnc(-c2cc(C)ccn2)c1.Cc1ccnc(-c2cc(C)ccn2)c1.[Os+2] [Os(dimebpy)^2+]
[4]
  kcat (in words): too low to be measured

## [Cl][Os]([Cl])[Cl] [OsCl3, OsCl3.6H2O]
[4]; 1.65 μM OsCl3, after 40 pulses
  kobs at the plateau: 1700 s⁻¹
[4]
  kcat at the plateau after repetitive pulsing: 1.1e+09 M⁻¹ s⁻¹
[4]; 1.65 or 3.3 μM OsCl3, first pulse
  effect on rate of decay of O2.- in the first pulse: only a minor increase
[4]; 3.3 OsCl3, after 40 pulses
  kobs at the plateau: 3400 s⁻¹

## [Cl][Os][Cl].c1cnc2c(c1)ccc1cccnc12.c1cnc2c(c1)ccc1cccnc12 [dichlorobis(phenathroline) osmium(II)]
[1]; 10 μM concentration
  % inhibition of O2.- release: 24±4%

## [O-][n+]1ccccc1 [pyridine N-oxide]
[2]
  k, reaction with .OH radicals: 3e+09 M⁻¹ s⁻¹

## K2OsCl6.2H2O Cl6 [OsCl6^2−]
[4]
  kcat at the plateau after repetitive pulsing: 4e+08 M⁻¹ s⁻¹

## bis(bipyridyl) dichloroosmium(II)
[1]; 10 μM concentration
  % inhibition of O2.- release: 2±2%

## octamminodinitrato-(μ-nitrido)-diosmium trinitrate
[1]; 100 μM concentration
  % inhibition of O2.- release: 29±6%
